The molecules below were run against T1, human DGAT2 (Homo sapiens, UniProt Q96PD7) (assay: DGAT2 enzyme activity inhibition, Phospholipid FlashPlate SPA). Conditions: recombinant human DGAT2 membrane protein from Sf-21 cells; inhibition of [14C]-TG production; 37° C.
T1 construct: FLAG (DYKDDDDK); made in house; host or cells: Sf-21 insect cells (BacPAK baculovirus system); membrane fraction used
T1 sequence (Q96PD7 1-388): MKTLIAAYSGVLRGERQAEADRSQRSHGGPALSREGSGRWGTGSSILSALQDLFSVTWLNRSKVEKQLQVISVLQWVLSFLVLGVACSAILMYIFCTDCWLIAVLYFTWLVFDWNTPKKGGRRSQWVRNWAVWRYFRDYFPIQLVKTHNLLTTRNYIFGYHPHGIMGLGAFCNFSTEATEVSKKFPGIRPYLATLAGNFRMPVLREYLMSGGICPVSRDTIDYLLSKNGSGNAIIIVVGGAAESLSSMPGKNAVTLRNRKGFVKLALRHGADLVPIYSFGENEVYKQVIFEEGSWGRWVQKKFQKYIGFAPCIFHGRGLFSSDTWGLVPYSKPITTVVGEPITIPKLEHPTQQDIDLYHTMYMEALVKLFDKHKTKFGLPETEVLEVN
Format: biochemical
Procedure, shortened: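 Sf-21 membranes expressing recombinant human DGAT2 (2 μg) preincubated with compound (3 nM–10 μM, 1% DMSO) and 50 μM 1,2 sn-oleoyl glycerol, 20 min at 37 °C, then 1 μM [14C]oleoyl-CoA for 15 min. [14C]-TG counted by SPA; inhibition as % of untreated.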

Going from `CCOc1cccnc1O[C@@H]1CCCN(c2cncc(Nc3nccc(O[C@H]4CC[C@@H](C(=O)O)CC4)n3)n2)C1` [Example 138, (1S,4s)-4-((2-((6-((R)-3-((3-ethoxypyridin-2-yl)oxy)piperidin-1-yl)pyrazin-2-yl)amino)pyrimidin-4-yl)oxy)cyclohexane-1-carboxylic Acid] to `CCOc1cccnc1O[C@@H]1CCCN(c2cncc(Nc3nccc(O[C@H]4CC[C@H](C(=O)O)CC4)n3)n2)C1` [Example 136, (1R,4r)-4-((2-((6-((R)-3-((3-ethoxypyridin-2-yl)oxy)piperidin-1-yl)pyrazin-2-yl)amino)pyrimidin-4-yl)oxy)cyclohexane-1-carboxylic Acid], the IC50 falls from 780 nM to 300 nM (2.6-fold). The second is the more potent here.

First: CCOc1ccccc1O[C@@H]1CCCN(c2cncc(Nc3nccc(N4CCC(C(=O)O)C4)n3)n2)C1 (stereo partly drawn) [Example 118, 1-(2-((6-((R)-3-(2-ethoxyphenoxy)piperidin-1-yl)pyrazin-2-yl)amino)pyrimidin-4-yl)pyrrolidine-3-carboxylic Acid]
Second: CCOc1ccccc1O[C@@H]1CCCN(c2cncc(Nc3nccc(N4CCC[C@H]4C(=O)O)n3)n2)C1 [Example 117, (2-((6-((R)-3-(2-ethoxyphenoxy)piperidin-1-yl)pyrazin-2-yl)amino)pyrimidin-4-yl)-L-proline]
The IC50 of the first is lower: 2000 nM for the first, greater than 10000 nM for the second.

`CCOc1cccnc1O[C@@H]1CCCN(c2cncc(Nc3cccc(Oc4ccc(C(=O)O)cc4)n3)n2)C1` [Example 90, (R)-4-((6-((6-(3-((3-ethoxypyridin-2-yl)oxy)piperidin-1-yl)pyrazin-2-yl)amino)pyridin-2-yl)oxy)benzoic Acid] and `CCOc1ccccc1O[C@@H]1CCCN(c2cncc(Nc3cccc(Oc4ccc(C(=O)O)cc4)n3)n2)C1` [Example 89, (R)-4-((6-((6-(3-(2-ethoxyphenoxy)piperidin-1-yl)pyrazin-2-yl)amino)pyridin-2-yl)oxy)benzoic Acid] are the same in IC50: 1200 nM for the first, 1200 nM for the second.

Going from `CCOc1cccnc1O[C@@H]1CCCN(c2cncc(Nc3nc(-c4cccc(OC(C)(C)C(=O)O)c4)ccc3F)n2)C1` [Example 104, (R)-2-(3-(6-((6-(3-((3-ethoxypyridin-2-yl)oxy)piperidin-1-yl)pyrazin-2-yl)amino)-5-fluoropyridin-2-yl)phenoxy)-2-methylpropanoic Acid] to `CCOc1cccnc1O[C@@H]1CCCN(c2cncc(Nc3ccc(F)c(-c4cccc(CC(C)(C)C(=O)O)c4)n3)n2)C1` [Example 103, (R)-3-(3-(6-((6-(3-((3-ethoxypyridin-2-yl)oxy)piperidin-1-yl)pyrazin-2-yl)amino)-3-fluoropyridin-2-yl)phenyl)-2,2-dimethylpropanoic Acid], the IC50 rises from 170 nM to 300 nM (1.8-fold). The first is the more potent here.

Compared with `CCOc1ccccc1O[C@@H]1CCCN(c2cccc(Nc3nccc(-c4cccc(CC(C)(C)C(=O)O)c4)n3)n2)C1` [Example 148, (R)-3-(3-(2-((6-(3-(2-ethoxyphenoxy)piperidin-1-yl)pyridin-2-yl)amino)pyrimidin-4-yl)phenyl)-2,2-dimethylpropanoic Acid], `CCOc1ccccc1O[C@@H]1CCCN(c2cncc(Nc3cccc(-c4cccc(CC(C)(C)C(=O)O)c4)n3)n2)C1` [Example 63, (R)-3-(3-(6-((6-(3-(2-ethoxyphenoxy)piperidin-1-yl)pyrazin-2-yl)amino)pyridin-2-yl)phenyl)-2,2-dimethylpropanoic Acid] is 44-fold lower in IC50: 3100 nM for the first, 71 nM for the second. The second is the more potent here.

Going from `CCOc1ccccc1O[C@@H]1CCCN(c2cncc(Nc3nc4ccccc4o3)n2)C1` [Example 10, (R)—N-(6-(3-(2-ethoxyphenoxy)piperidin-1-yl)pyrazin-2-yl)benzo[d]oxazol-2-amine] to `CCOc1ccccc1O[C@@H]1CCCN(c2cncc(Nc3nc(-c4ccccc4)co3)n2)C1` [Example 9, (R)—N-(6-(3-(2-ethoxyphenoxy)piperidin-1-yl)pyrazin-2-yl)-4-phenyloxazol-2-amine], the IC50 rises from 250 nM to 2300 nM (9.2-fold). The first is the more potent here.

Going from `CCOc1ccccc1O[C@@H]1CCCN(c2cncc(Nc3cccc(Oc4ccc(CC(=O)O)cc4)n3)n2)C1` [Example 97, (R)-2-(4-((6-((6-(3-(2-ethoxyphenoxy)piperidin-1-yl)pyrazin-2-yl)amino)pyridin-2-yl)oxy)phenyl)acetic Acid] to `CCOc1ccccc1O[C@@H]1CCCN(c2cncc(Nc3cccc(Oc4cccc(CC(=O)O)c4)n3)n2)C1` [Example 95, (R)-2-(3-((6-((6-(3-(2-ethoxyphenoxy)piperidin-1-yl)pyrazin-2-yl)amino)pyridin-2-yl)oxy)phenyl)acetic Acid], the IC50 falls from 900 nM to 83 nM (11-fold). The second is the more potent here.

Compared with `CCOc1ccccc1O[C@@H]1CCCN(c2cncc(Nc3nccc(N4CCC[C@@H](OCC(=O)O)C4)n3)n2)C1` [Example 132, 2-(((R)-1-(2-((6-((R)-3-(2-ethoxyphenoxy)piperidin-1-yl)pyrazin-2-yl)amino)pyrimidin-4-yl)piperidin-3-yl)oxy)acetic Acid], `CCOc1ccccc1O[C@@H]1CCCN(c2cncc(Nc3nccc(N4CCC[C@@H](CCC(=O)O)C4)n3)n2)C1` [Example 130, 3-((S)-1-(2-((6-((R)-3-(2-ethoxyphenoxy)piperidin-1-yl)pyrazin-2-yl)amino)pyrimidin-4-yl)piperidin-3-yl)propanoic Acid] is 3.2-fold lower in IC50: 6700 nM for the first, 2100 nM for the second.

Going from `CCOc1ccccc1O[C@@H]1CCCN(c2cncc(Nc3ccnc(-c4ccc(CC(C)(C)C(=O)O)cc4)n3)n2)C1` [Example 172, (R)-3-(4-(4-((6-(3-(2-ethoxyphenoxy)piperidin-1-yl)pyrazin-2-yl)amino)pyrimidin-2-yl)phenyl)-2,2-dimethylpropanoic Acid] to `CCOc1ccccc1O[C@@H]1CCCN(c2cncc(Nc3nccc(-c4ccc(CC(C)(C)C(=O)O)cc4)n3)n2)C1` [Example 153, (R)-3-(4-(2-((6-(3-(2-ethoxyphenoxy)piperidin-1-yl)pyrazin-2-yl)amino)pyrimidin-4-yl)phenyl)-2,2-dimethylpropanoic Acid], the IC50 falls from 250 nM to 160 nM (1.6-fold).

First: CCOc1ccccc1O[C@@H]1CCCN(c2cncc(Nc3ccc(C(C)(C)C(=O)O)cc3)n2)C1 [Example 27, (R)-2-(4-((6-(3-(2-ethoxyphenoxy)piperidin-1-yl)pyrazin-2-yl)amino)phenyl)-2-methylpropanoic Acid]
Second: CCOc1ccccc1O[C@@H]1CCCN(c2cncc(Nc3cc(-c4ccc(C(C)(C)C(=O)O)cc4)ccn3)n2)C1 [Example 43, (R)-2-(4-(2-((6-(3-(2-ethoxyphenoxy)piperidin-1-yl)pyrazin-2-yl)amino)pyridin-4-yl)phenyl)-2-methylpropanoic Acid]
The IC50 of the first is higher: greater than 10000 nM for the first, 3100 nM for the second.

Compared with `CCOc1cc(F)ccc1O[C@@H]1CCCN(c2cncc(Nc3cccc(-c4ccc(OC(C)(C)C(=O)O)cc4)n3)n2)C1` [Example 177, (R)-2-(4-(6-((6-(3-(2-ethoxy-4-fluorophenoxy)piperidin-1-yl)pyrazin-2-yl)amino)pyridin-2-yl)phenoxy)-2-methylpropanoic Acid], `CCOc1ccccc1O[C@@H]1CCCN(c2cncc(Nc3nccc(-c4ccc(OC(C)(C)C(=O)O)cc4)n3)n2)C1` [Example 160, (R)-2-(4-(2-((6-(3-(2-ethoxyphenoxy)piperidin-1-yl)pyrazin-2-yl)amino)pyrimidin-4-yl)phenoxy)-2-methylpropanoic Acid] is 2.9-fold lower in IC50: 380 nM for the first, 130 nM for the second. The second is the more potent here.

First: CCOc1ccccc1O[C@@H]1CCCN(c2nccc(Nc3nccc(-c4ccc(CC(C)(C)C(=O)O)cc4)n3)n2)C1 [Example 155, (R)-3-(4-(2-((2-(3-(2-ethoxyphenoxy)piperidin-1-yl)pyrimidin-4-yl)amino)pyrimidin-4-yl)phenyl)-2,2-dimethylpropanoic Acid]
Second: CCOc1ccccc1O[C@@H]1CCCN(c2ccnc(Nc3cccc(-c4ccc(NCC(=O)O)cc4)n3)n2)C1 [Example 76]
The IC50 of the first is 1.8-fold higher: 550 nM for the first, 300 nM for the second. The second is the more potent here.

`CCOc1ccccc1O[C@@H]1CCCN(c2cncc(Nc3ccnc(-c4cccc(C(C)(C)C(=O)O)c4)n3)n2)C1` [Example 168, (R)-2-(3-(4-((6-(3-(2-ethoxyphenoxy)piperidin-1-yl)pyrazin-2-yl)amino)pyrimidin-2-yl)phenyl)-2-methylpropanoic Acid] and `CCOc1ccccc1O[C@@H]1CCCN(c2cncc(Nc3cccc(Oc4cccc(C(=O)O)c4)n3)n2)C1` [Example 87, (R)-3-((6-((6-(3-(2-ethoxyphenoxy)piperidin-1-yl)pyrazin-2-yl)amino)pyridin-2-yl)oxy)benzoic Acid] are within 1.5-fold of each other in IC50: 420 nM for the first, 500 nM for the second.

Going from `CCOc1cccnc1O[C@@H]1CCCN(c2cncc(Nc3ccnc(-c4ccc(CC(C)(C)C(=O)O)cc4)n3)n2)C1` [Example 173, (R)-3-(4-(4-((6-(3-((3-ethoxypyridin-2-yl)oxy)piperidin-1-yl)pyrazin-2-yl)amino)pyrimidin-2-yl)phenyl)-2,2-dimethylpropanoic Acid] to `CCOc1cccnc1O[C@@H]1CCCN(c2cncc(Nc3ccnc(-c4ccc(OC(C)(C)C(=O)O)cc4)n3)n2)C1` [Example 179, (R)-2-(4-(4-((6-(3-((3-ethoxypyridin-2-yl)oxy)piperidin-1-yl)pyrazin-2-yl)amino)pyrimidin-2-yl)phenoxy)-2-methylpropanoic Acid], the IC50 rises from 220 nM to 590 nM (2.7-fold). The first is the more potent here.

`CCOc1ccccc1O[C@@H]1CCCN(c2cncc(Nc3cccc(-c4ccc(NCC(=O)O)cc4)n3)n2)C1` [Example 73, (R)-(4-(6-((6-(3-(2-ethoxyphenoxy)piperidin-1-yl)pyrazin-2-yl)amino)pyridin-2-yl)phenyl)glycine] showed an IC50 of 890 nM.
